Assay results published in US9999222B2, “Herbicidal combination comprising azines” (BASF SE, priority 2014, dated 2018).

Tests used:
Experiment in all cases: Greenhouse test, pre-emergence treatment
POLCO = format: in vivo, Polygonum convolvulus; settings: pre-emergence
Source text: (§1) The culture containers used were plastic flowerpots containing loamy sand with approximately 3.0% of humus as the substrate. The seeds of the test plants were sown separately for each species.
(§2) For the pre-emergence treatment, the active ingredients, which had been suspended or emulsified in water, were applied directly after sowing by means of finely distributing nozzles. The containers were irrigated gently to promote germination and growth and subsequently covered with transparent plastic hoods until the plants had rooted. This cover caused uniform germination of the test plants, unless this had been impaired by the active ingredients.
(§3) Depending on the species, the plants were kept at 10-25° C. or 20-35° C., respectively.
(§4) The test period extended over 2 to 4 weeks. During this time, the plants were tended, and their response to the individual treatments was evaluated.
(§5) Evaluation was carried out using a scale from 0 to 100. 100 means no emergence of the plants, or complete destruction of at least the aerial moieties, and 0 means no damage, or normal course of growth. A moderate herbicidal activity is given at values of at least 60, a good herbicidal activity is given at values of at least 70, and a very good herbicidal activity is given at values of at least 85.
(§6) The respective stated components a and b, and if appropriate, c were formulated as a 10% by weight strength emulsion concentrate and, with addition of the amount of solvent system, introduced into the spray liquor used for applying the active compound.
(§7) In the examples, the solvent used was water.
(§8) In the examples below, using the method of S. R. Colby (1967) “Calculating synergistic and antagonistic responses of herbicide combinations”, Weeds 15, p. 22ff., the value E, which is expected if the activity of the individual active compounds is only additive, was calculated. E=X+Y−(X·Y/100) where • X=percent activity using active compound a at an application rate A; • Y=percent activity using active compound b at an application rate B; • E=expected activity (in %) by a+b at application rates A+B.
(§9) If the value found experimentally is higher than the value E calculated according to Colby, a synergistic effect is present.

GALAP = format: in vivo, Galium aparine; settings: Galium aparine, pre-emergence, 480 h, pre-emergence
Source text: as §1, §2, §3, §4, §5, §6, §7, §8, §9

EPHHL = format: in vivo, Euphorbia heterophylla; settings: Euphorbia heterophylla, pre-emergence, 480 h, pre-emergence, 30 g ai/ha; read-out: observed % activity 20 DAT
Source text: as §1, §2, §3, §4, §5, §6, §7, §8, §9

GERPU = format: in vivo, Geranium pusillum; settings: Geranium pusillum, pre-emergence, 480 h
Source text: as §1, §2, §3, §4, §5, §6, §7, §8, §9

ANTAR = format: in vivo; settings: Anthemis arvensis, 480 h, 20 DAT, read-out: observed % activity
Source text: as §1, §2, §3, §4, §5, §6, §7, §8, §9

IPOHE = format: in vivo, Ipomoea hederacea; settings: Ipomoea hederacea, 480 h, 30 g ai/ha, read-out: observed % activity 20 DAT
Source text: as §1, §2, §3, §4, §5, §6, §7, §8, §9

COMBE = format: in vivo, Commelina benghalensis; settings: Commelina benghalensis, pre-emergence, 480 h
Source text: as §1, §2, §3, §4, §5, §6, §7, §8, §9

ABUTH = format: in vivo, Abutilon theophrasti; settings: Abutilon theophrasti, 480 h
Source text: as §1, §2, §3, §4, §5, §6, §7, §8, §9

SIDRH = format: in vivo, Sida rhombifolia; settings: Sida rhombifolia, pre-emergence, 480 h
Source text: as §1, §2, §3, §4, §5, §6, §7, §8, §9

KCHSC = format: in vivo, Kochia scoparia; settings: Bassia scoparia, pre-emergence, 480 h, pre-emergence
Source text: as §1, §2, §3, §4, §5, §6, §7, §8, §9

CENCY = format: in vivo; settings: 480 h, individual, read-out: observed % activity 20 DAT
[1] = 15 g ai/ha, read-out: observed % activity 20 DAT
[2] = 30 g ai/ha, read-out: observed % activity 20 DAT
[3] = 20 g ai/ha, 20 DAT, read-out: observed % activity
[4] = 40 g ai/ha, 20 DAT, read-out: observed % activity
[5] = 6 g ai/ha, 20 DAT, read-out: observed % activity
[6] = 12 g ai/ha, 20 DAT, read-out: observed % activity

Compound: CCc1cnc(C2=NC(C)(C(C)C)C(=O)N2)c(C(=O)O)c1 (centres unmarked) [imazethapyr]
- inhibition at 20 g/ha (POLCO; Fallopia convolvulus, 480 h, 20 g ai/ha, 20 DAT, read-out: observed % activity): 35%
- inhibition at 40 g/ha (POLCO; Fallopia convolvulus, 480 h, 40 g ai/ha, 20 DAT, read-out: observed % activity): 90%
- inhibition at 15 g/ha (POLCO; Fallopia convolvulus, 480 h, 15 g ai/ha, read-out: observed % activity 20 DAT): 30%
- inhibition at 30 g/ha (POLCO; Fallopia convolvulus, 480 h, 30 g ai/ha, read-out: observed % activity 20 DAT): 65%
- observed % activity 20 DAT (POLCO; 30 g ai/ha): 60%
- inhibition at 15 g/ha (GALAP; [1]): 50%
- inhibition at 30 g/ha (GALAP; [2]): 60%
- inhibition at 30 g/ha (EPHHL): 65%
- inhibition at 20 g/ha (GERPU; [3]): 20%
- inhibition at 40 g/ha (GERPU; [4]): 85%
- inhibition at 15 g/ha (GERPU; [1]): 30%
- inhibition at 30 g/ha (GERPU; [2]): 30%
- inhibition at 20 g/ha (ANTAR; 20 g ai/ha): 30%
- inhibition at 40 g/ha (ANTAR; 40 g ai/ha): 30%
- inhibition at 30 g/ha (IPOHE): 0%
- inhibition at 20 g/ha (COMBE; [3]): 45%
- inhibition at 40 g/ha (COMBE; [4]): 65%
- inhibition at 15 g/ha (COMBE; [1]): 0%
- inhibition at 30 g/ha (COMBE; [2]): 35%
- inhibition at 15 g/ha (ABUTH; [1]): 0%
- inhibition at 20 g/ha (ABUTH; [3]): 60%
- inhibition at 30 g/ha (ABUTH; [2]): 15%
- inhibition at 40 g/ha (ABUTH; [4]): 80%
- inhibition at 20 g/ha (SIDRH; [3]): 45%
- inhibition at 40 g/ha (SIDRH; [4]): 80%
- inhibition at 15 g/ha (SIDRH; [1]): 15%
- inhibition at 30 g/ha (SIDRH; [2]): 60%
- inhibition at 15 g/ha (KCHSC; [1]): 70%
- inhibition at 30 g/ha (KCHSC; [2]): 85%

Compound: Cc1nn(-c2cc(NS(C)(=O)=O)c(Cl)cc2Cl)c(=O)n1C(F)F [Sulfentrazone, sulfentrazone]
- inhibition at 6 g/ha (POLCO; Fallopia convolvulus, 480 h, 6 g ai/ha, 20 DAT, read-out: observed % activity): 0%
- inhibition at 12 g/ha (POLCO; Fallopia convolvulus, 480 h, 12 g ai/ha, 20 DAT, read-out: observed % activity): 0%
- inhibition at 10 g/ha (POLCO; Fallopia convolvulus, 480 h, POLCO, individual, use rate 10 g ai/ha, read-out: observed % activity 20 DAT): 25%
- observed % activity 20 DAT (POLCO; POLCO, individual, use rate 5 g ai/ha): 40%
- inhibition at 6 g/ha (GALAP; [5]): 0%
- inhibition at 5 g/ha (GALAP; GALAP, individual, use rate 5 g ai/ha, read-out: observed % activity 20 DAT): 25%
- inhibition at 10 g/ha (GALAP; GALAP, individual, use rate 10 g ai/ha, read-out: observed % activity 20 DAT): 50%
- inhibition at 6 g/ha (GERPU; [5]): 40%
- inhibition at 12 g/ha (GERPU; [6]): 45%
- inhibition at 6 g/ha (ANTAR; 6 g ai/ha): 30%
- inhibition at 12 g/ha (ANTAR; 12 g ai/ha): 60%
- inhibition at 5 g/ha (CENCY; use rate 5 g ai/ha): 20%
- inhibition at 10 g/ha (CENCY; use rate 10 g ai/ha): 30%
- inhibition at 6 g/ha (COMBE; [5]): 20%
- inhibition at 12 g/ha (COMBE; [6]): 45%
- inhibition at 10 g/ha (COMBE; COMBE, individual, use rate 10 g ai/ha, read-out: observed % activity 20 DAT): 15%
- inhibition at 6 g/ha (ABUTH; [5]): 20%
- inhibition at 12 g/ha (ABUTH; [6]): 45%
- inhibition at 10 g/ha (ABUTH; ABUTH, individual, use rate 10 g ai/ha, read-out: observed % activity 20 DAT): 25%
- inhibition at 6 g/ha (SIDRH; [5]): 20%
- inhibition at 10 g/ha (SIDRH; SIDRH, individual, use rate 10 g ai/ha, read-out: observed % activity 20 DAT): 30%
- inhibition at 12 g/ha (KCHSC; [6]): 98%
- inhibition at 5 g/ha (KCHSC; KCHSC, individual, use rate 5 g ai/ha, read-out: observed % activity 20 DAT): 70%
- inhibition at 10 g/ha (KCHSC; KCHSC, individual, use rate 10 g ai/ha, read-out: observed % activity 20 DAT): 65%
